Columns and labels:
Assay type in all cases: biochemical
PI3K-gamma = PI3K-gamma (Homo sapiens, UniProt P48736); assay: PI3K-gamma fluorescence polarization assay; conditions: PI3Kγ Avg. IC50
In short: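 Reactions in 5 mM HEPES pH 7, 2.5 mM MgCl2, 25 μM ATP with 2.5 μM diC8-PI(4,5)P2 and 5 ng enzyme, 1 h at 25° C, then EDTA quench. Product detected by FP using GST-GRP1 PH domain (100 nM) and BODIPY-TMR-IP4 tracer (5 nM); final DMSO 0.8%.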

PI3K-alpha = PI3K-alpha (Homo sapiens, UniProt P42336); assay: PI3K-alpha fluorescence polarization assay; conditions: read-out: PI3Kα Avg. IC50
Chain of PI3K-alpha (P42336 whole entry, species assumed): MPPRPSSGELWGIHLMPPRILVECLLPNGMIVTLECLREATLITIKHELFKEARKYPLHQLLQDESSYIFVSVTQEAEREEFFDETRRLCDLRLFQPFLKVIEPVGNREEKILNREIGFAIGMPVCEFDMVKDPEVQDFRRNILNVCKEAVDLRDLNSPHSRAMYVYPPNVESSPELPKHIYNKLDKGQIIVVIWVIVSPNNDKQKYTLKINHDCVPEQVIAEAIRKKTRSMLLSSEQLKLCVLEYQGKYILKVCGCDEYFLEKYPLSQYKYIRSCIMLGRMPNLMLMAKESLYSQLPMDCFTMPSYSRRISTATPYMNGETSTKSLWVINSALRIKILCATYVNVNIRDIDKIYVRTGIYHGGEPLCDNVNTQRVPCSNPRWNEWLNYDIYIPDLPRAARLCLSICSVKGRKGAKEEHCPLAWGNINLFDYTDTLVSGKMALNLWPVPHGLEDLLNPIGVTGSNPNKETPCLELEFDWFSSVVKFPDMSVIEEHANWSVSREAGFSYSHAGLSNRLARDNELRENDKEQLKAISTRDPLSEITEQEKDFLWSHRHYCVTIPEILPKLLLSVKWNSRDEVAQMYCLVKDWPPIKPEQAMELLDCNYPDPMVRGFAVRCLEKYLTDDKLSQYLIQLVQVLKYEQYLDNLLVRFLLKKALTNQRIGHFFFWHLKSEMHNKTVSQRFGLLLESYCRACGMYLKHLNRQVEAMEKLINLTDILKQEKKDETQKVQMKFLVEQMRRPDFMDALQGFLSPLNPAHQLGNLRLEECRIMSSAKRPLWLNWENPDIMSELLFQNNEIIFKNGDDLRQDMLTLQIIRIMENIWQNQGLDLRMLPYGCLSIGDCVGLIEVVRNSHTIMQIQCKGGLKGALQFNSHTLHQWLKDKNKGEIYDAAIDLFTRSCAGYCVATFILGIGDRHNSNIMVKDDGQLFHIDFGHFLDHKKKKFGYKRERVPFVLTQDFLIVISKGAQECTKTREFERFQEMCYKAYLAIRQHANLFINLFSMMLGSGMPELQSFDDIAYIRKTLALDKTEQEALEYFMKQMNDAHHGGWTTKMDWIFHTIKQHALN
Chain of PI3K-alpha (P27986 whole entry partner, species assumed): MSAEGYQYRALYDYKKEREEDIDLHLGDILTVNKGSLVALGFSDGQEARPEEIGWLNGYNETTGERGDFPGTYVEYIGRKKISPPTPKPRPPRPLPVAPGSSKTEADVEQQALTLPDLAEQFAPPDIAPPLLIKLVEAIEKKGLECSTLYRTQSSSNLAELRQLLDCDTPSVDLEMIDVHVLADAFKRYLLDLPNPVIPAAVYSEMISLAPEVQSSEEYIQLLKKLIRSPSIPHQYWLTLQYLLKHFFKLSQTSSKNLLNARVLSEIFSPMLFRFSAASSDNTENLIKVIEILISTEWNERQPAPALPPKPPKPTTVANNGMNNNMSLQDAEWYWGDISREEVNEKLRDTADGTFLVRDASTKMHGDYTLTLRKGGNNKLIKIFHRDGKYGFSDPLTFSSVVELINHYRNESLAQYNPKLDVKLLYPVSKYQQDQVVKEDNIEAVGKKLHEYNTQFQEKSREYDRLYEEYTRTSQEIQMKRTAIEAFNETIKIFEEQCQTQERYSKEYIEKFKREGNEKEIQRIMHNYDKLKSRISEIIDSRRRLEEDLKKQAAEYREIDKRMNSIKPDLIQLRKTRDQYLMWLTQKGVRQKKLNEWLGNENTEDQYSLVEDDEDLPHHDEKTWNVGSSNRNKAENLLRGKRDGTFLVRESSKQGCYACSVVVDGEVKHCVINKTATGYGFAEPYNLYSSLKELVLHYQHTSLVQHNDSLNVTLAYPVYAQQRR

human TOR = biological target: T1, human TOR (Homo sapiens, UniProt P42345); assay: mTOR enzyme assay (DELFIA, His6-S6K substrate); conditions: read-out: mTOR Kinase Avg. IC50
T1 construct: FLAG

Chain of PI3K-gamma (P48736 whole entry, species assumed, the tested form may be a part): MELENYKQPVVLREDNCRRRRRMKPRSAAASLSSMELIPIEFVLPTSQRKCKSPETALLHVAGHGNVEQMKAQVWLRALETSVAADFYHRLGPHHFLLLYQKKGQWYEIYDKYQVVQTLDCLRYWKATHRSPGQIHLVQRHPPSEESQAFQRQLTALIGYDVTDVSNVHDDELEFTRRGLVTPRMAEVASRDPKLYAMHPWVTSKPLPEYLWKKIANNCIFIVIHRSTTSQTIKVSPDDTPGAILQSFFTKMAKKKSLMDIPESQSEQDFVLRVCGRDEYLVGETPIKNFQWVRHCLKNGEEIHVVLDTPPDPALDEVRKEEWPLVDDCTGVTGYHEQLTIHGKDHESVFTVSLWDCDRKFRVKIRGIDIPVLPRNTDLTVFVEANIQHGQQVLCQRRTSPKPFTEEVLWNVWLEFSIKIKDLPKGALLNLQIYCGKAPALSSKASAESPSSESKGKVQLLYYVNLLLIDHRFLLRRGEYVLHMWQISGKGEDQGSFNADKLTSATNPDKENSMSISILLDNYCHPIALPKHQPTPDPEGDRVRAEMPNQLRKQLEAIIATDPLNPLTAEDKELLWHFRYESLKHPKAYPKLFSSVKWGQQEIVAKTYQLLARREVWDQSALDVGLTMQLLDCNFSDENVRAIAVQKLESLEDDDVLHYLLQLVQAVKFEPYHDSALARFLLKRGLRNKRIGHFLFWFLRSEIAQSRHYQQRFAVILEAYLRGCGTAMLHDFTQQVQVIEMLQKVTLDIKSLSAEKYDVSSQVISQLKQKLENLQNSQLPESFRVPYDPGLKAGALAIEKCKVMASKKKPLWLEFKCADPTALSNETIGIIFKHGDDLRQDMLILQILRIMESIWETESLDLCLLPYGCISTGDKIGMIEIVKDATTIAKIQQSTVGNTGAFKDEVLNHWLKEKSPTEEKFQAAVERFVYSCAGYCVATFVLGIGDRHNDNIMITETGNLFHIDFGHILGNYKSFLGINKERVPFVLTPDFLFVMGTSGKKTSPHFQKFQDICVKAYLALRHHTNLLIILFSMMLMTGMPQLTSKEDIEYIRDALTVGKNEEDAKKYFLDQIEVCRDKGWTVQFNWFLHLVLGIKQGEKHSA

Row | Structure (SMILES) | IC50 (PI3K-gamma) | IC50 (PI3K-alpha) | IC50 (human TOR)
1 | CCn1c(C)c(/C=C2\Oc3ccc(NC(=O)Nc4ccc(S(=O)(=O)N(C)CCN(C)C)cc4)cc3C2=O)c2cc(OC)ccc21 [Compound 679, N-[2-(dimethylamino)ethyl]-4-[({(2Z)-2-[(1-ethyl-5-methoxy-2-methyl-1H-indol-3-yl)methylidene]-3-oxo-2,3-dihydro-1-benzofuran-5-yl}carbamoyl)amino]-N-methylbenzenesulfonamide] | 67.5 nM | 8 nM | 370 nM
2 | COc1ccc2c(c1)c(/C=C1\Oc3ccc(NC(=O)Nc4ccc(NCCN(C)C)cc4)cc3C1=O)c(C)n2CCN1CCN(C)CC1 [Compound 684, 1-(4-{[2-(dimethylamino)ethyl]amino}phenyl)-3-[(2Z)-2-({5-methoxy-2-methyl-1-[2-(4-methylpiperazin-1-yl)ethyl]-1H-indol-3-yl}methylidene)-3-oxo-2,3-dihydro-1-benzofuran-5-yl]urea] | 1720 nM | 7 nM | 19 nM
3 | COc1ccc2c(c1)c(/C=C1\Oc3ccc(NC(=O)Nc4ccc(NC(=O)CCN(C)C)cc4)cc3C1=O)c(C)n2CCN1CCN(C)CC1 [Compound 685, N-[4-({[(2Z)-2-({5-methoxy-2-methyl-1-[2-(4-methylpiperazin-1-yl)ethyl]-1H-indol-3-yl}methylidene)-3-oxo-2,3-dihydro-1-benzofuran-5-yl]carbamoyl}amino)phenyl]-N3,N3-dimethyl-b-alaninamide] | 115 nM | 0.8 nM | 16 nM
4 | COc1ccc2c(c1)c(/C=C1\Oc3ccc(NC(=O)Nc4ccc(C(=O)N5CCOCC5)cc4)cc3C1=O)c(C)n2CCN1CCN(C)CC1 [Compound 687, 1-[(2Z)-2-({5-methoxy-2-methyl-1-[2-(4-methylpiperazin-1-yl)ethyl]-1H-indol-3-yl}methylidene)-3-oxo-2,3-dihydro-1-benzofuran-5-yl]-3-[4-(morpholin-4-ylcarbonyl)phenyl]urea] | 44 nM | 1.1 nM | 87 nM
5 | COc1ccc2[nH]c(-c3c(C)nn(C)c3C)c(/C=C3\Oc4ccc(NC(=O)Nc5ccc(C(=O)N6CCN(C)CC6)cc5)cc4C3=O)c2c1 [Compound 689, 1-[(2Z)-2-{[5-methoxy-2-(1,3,5-trimethyl-1H-pyrazol-4-yl)-1H-indol-3-yl]methylidene}-3-oxo-2,3-dihydro-1-benzofuran-5-yl]-3-{4-[(4-methylpiperazin-1-yl)carbonyl]phenyl}urea] | 2.5 nM | 0.2 nM | 4 nM
6 | COc1ccc2[nH]c(-c3c(C)nn(C)c3C)c(/C=C3\Oc4ccc(NC(=O)Nc5ccc(C(=O)N6CCOCC6)cc5)cc4C3=O)c2c1 [Compound 690, 1-[(2Z)-2-{[5-methoxy-2-(1,3,5-trimethyl-1H-pyrazol-4-yl)-1H-indol-3-yl]methylidene}-3-oxo-2,3-dihydro-1-benzofuran-5-yl]-3-[4-(morpholin-4-ylcarbonyl)phenyl]urea] | 2.75 nM | 0.2 nM | 4 nM
7 | CNC(=O)Nc1ccc2c(c1)C(=O)/C(=C/c1c(Br)[nH]c3ccc(OC)cc13)O2 [Compound 692, 1-{(2Z)-2-[(2-bromo-5-methoxy-1H-indol-3-yl)methylidene]-3-oxo-2,3-dihydro-1-benzofuran-5-yl}-3-methylurea] | 105 nM | 7 nM | 8 nM
8 | CNC(=O)Nc1ccc2c(c1)C(=O)/C(=C/c1c(-c3c(C)nn(C)c3C)[nH]c3c(F)cc(OC)cc13)O2 [Compound 693, 1-[(2Z)-2-{[7-fluoro-5-methoxy-2-(1,3,5-trimethyl-1H-pyrazol-4-yl)-1H-indol-3-yl]methylidene}-3-oxo-2,3-dihydro-1-benzofuran-5-yl]-3-methylurea] | 5.07 nM | 0.75 nM | < 1 nM
9 | CCn1c(C)c(/C=C2\Oc3ccc(NC(=O)Nc4ccc(N(C)C(=O)CCN(C)C)cc4)cc3C2=O)c2cc(OC)ccc21 [Compound 694, N-{4-[({(2Z)-2-[(1-ethyl-5-methoxy-2-methyl-1H-indol-3-yl)methylidene]-3-oxo-2,3-dihydro-1-benzofuran-5-yl}carbamoyl)amino]phenyl}-N,N3,N3-trimethyl-b-alaninamide] | 95 nM | 4 nM | 155 nM

More lines, in order of falling IC50 (PI3K-gamma), values ahead:

Row | IC50 (PI3K-gamma) | IC50 (PI3K-alpha) | IC50 (human TOR) | Structure (SMILES)
10 | 6030 nM | 1920 nM | 535 nM | CNC(=O)Nc1ccc2c(c1)C(=O)/C(=C/c1c(-c3c(C)nn(C)c3C)[nH]c3ccc(OCCOC)cc13)O2 [Compound 680, 1-[(2Z)-2-{[5-(2-methoxyethoxy)-2-(1,3,5-trimethyl-1H-pyrazol-4-yl)-1H-indol-3-yl]methylidene}-3-oxo-2,3-dihydro-1-benzofuran-5-yl]-3-methylurea]
11 | 11 nM | 1.65 nM | 92 nM | CCn1c(C)c(/C=C2\Oc3ccc(NC(=O)Nc4ccc(OCCCNC)cc4)cc3C2=O)c2cc(OC)ccc21 [Compound 683, 1-{(2Z)-2-[(1-ethyl-5-methoxy-2-methyl-1H-indol-3-yl)methylidene]-3-oxo-2,3-dihydro-1-benzofuran-5-yl}-3-{4-[3-(methylamino)propoxy]phenyl}urea]
12 | 5 nM | 0.7 nM | 110 nM | CCn1c(C)c(/C=C2\Oc3ccc(NC(=O)Nc4ccc(C(=O)N5CCOCC5)cc4)cc3C2=O)c2cc(OC)ccc21 [Compound 686, 1-{(2Z)-2-[(1-ethyl-5-methoxy-2-methyl-1H-indol-3-yl)methylidene]-3-oxo-2,3-dihydro-1-benzofuran-5-yl}-3-[4-(morpholin-4-ylcarbonyl)phenyl]urea]
13 | 2.1 nM | 0.25 nM | 1 nM | COc1ccc2[nH]c(-c3c(C)nn(C)c3C)c(/C=C3\Oc4ccc(NC(=O)Nc5ccc(NC(=O)CCN(C)C)cc5)cc4C3=O)c2c1 [Compound 691, N-[4-({[(2Z)-2-{[5-methoxy-2-(1,3,5-trimethyl-1H-pyrazol-4-yl)-1H-indol-3-yl]methylidene}-3-oxo-2,3-dihydro-1-benzofuran-5-yl]carbamoyl}amino)phenyl]-N3,N3-dimethyl-b-alaninamide]
14 | 1.98 nM | 0.3 nM | 1 nM | COc1ccc2[nH]c(-c3c(C)nn(C)c3C)c(/C=C3\Oc4ccc(NC(=O)Nc5ccc(C(=O)N(C)CCN(C)C)cc5)cc4C3=O)c2c1 [Compound 682, N-[2-(dimethylamino)ethyl]-4-({[(2Z)-2-{[5-methoxy-2-(1,3,5-trimethyl-1H-pyrazol-4-yl)-1H-indol-3-yl]methylidene}-3-oxo-2,3-dihydro-1-benzofuran-5-yl]carbamoyl}amino)-N-methylbenzamide]
15 | 1.95 nM | 0.3 nM | 6 nM | COc1ccc2[nH]c(C3CCCCC3)c(/C=C3\Oc4ccc(NC(=O)Nc5ccc(C(=O)N(C)CCN(C)C)cc5)cc4C3=O)c2c1 [Compound 688, 4-[({(2Z)-2-[(2-cyclohexyl-5-methoxy-1H-indol-3-yl)methylidene]-3-oxo-2,3-dihydro-1-benzofuran-5-yl}carbamoyl)amino]-N-[2-(dimethylamino)ethyl]-N-methylbenzamide]
